Experimental findings from PubChem BioAssay AID328 (DTP/NCI, 2004) are described below.

For this experiment, the system named is BDF1 mice, P388 leukemia ip, median survival T/C. Kind of experiment: NCI In Vivo Anticancer Drug Screen. Data for tumor model P388 Leukemia (intraperitoneal) in B6D2F1 (BDF1) mice. As to conditions: endpoint: median survival time, higher = longer survival. An outline of the steps: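 Transplantable tumour in mice; compound vs vehicle dosing; survival scored; ratio of treated to control reported.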

The mark [1] stands for this setting: dose: 50.0 mg/kg/injection, schedule: Q04DX003 (ip), vehicle: Klucel (hydroxypropylcellulose) (HPC).
Where [2] appears, read: dose: 100.0 mg/kg/injection, schedule: Q04DX003 (ip), vehicle: Klucel (hydroxypropylcellulose) (HPC).
Setting [3] is: dose: 100.0 mg/kg/injection, schedule: Q01DX009 (ip), vehicle: saline with Tween-80.
Where [4] appears, read: dose: 200.0 mg/kg/injection, schedule: Q01DX009 (ip), vehicle: saline with Tween-80.
Setting [5] is: dose: 100.0 mg/kg/injection, schedule: Q01DX009 (ip), vehicle: saline.
[6] abbreviates: dose: 200.0 mg/kg/injection, schedule: Q01DX009 (ip), vehicle: saline.
Where [7] appears, read: dose: 100.0 mg/kg/injection, schedule: Q04DX003 (ip), vehicle: saline with Tween-80.
Where [8] appears, read: dose: 200.0 mg/kg/injection, schedule: Q04DX003 (ip), vehicle: saline with Tween-80.
The mark [9] stands for this setting: dose: 400.0 mg/kg/injection, schedule: Q01DX009 (ip), vehicle: saline with Tween-80.
The mark [10] stands for this setting: dose: 400.0 mg/kg/injection, schedule: Q04DX003 (ip), vehicle: saline with Tween-80.

Several values for one entry are separate records, joined by “and”; a condition that tells them apart may be missing. Equal entries are not always repeated. Inconclusive results and toxic doses are left out.

Turning to `O=NN(CCCl)C(=O)Nc1ccc(NC(=O)N(CCCl)N=O)cc1`, the T/C is 100 % of control (dose: 0.03 mg/kg/injection, schedule: Q04DX003 (ip), vehicle: Klucel (hydroxypropylcellulose) (HPC)); 108 % of control (dose: 0.06 mg/kg/injection, schedule: Q04DX003 (ip), vehicle: Klucel (hydroxypropylcellulose) (HPC)); 111 % of control (dose: 0.12 mg/kg/injection, schedule: Q01DX009 (ip), vehicle: Klucel (hydroxypropylcellulose) (HPC)); 108 % of control (dose: 0.12 mg/kg/injection, schedule: Q04DX003 (ip), vehicle: Klucel (hydroxypropylcellulose) (HPC)); 177 % of control (dose: 0.25 mg/kg/injection, schedule: Q01DX009 (ip), vehicle: Klucel (hydroxypropylcellulose) (HPC)); 150 % of control (dose: 0.25 mg/kg/injection, schedule: Q04DX003 (ip), vehicle: Klucel (hydroxypropylcellulose) (HPC)). The T/C runs as follows: (dose: 0.5 mg/kg/injection, schedule: Q01DX009 (ip), vehicle: Klucel (hydroxypropylcellulose) (HPC)) 222 % of control; (dose: 0.5 mg/kg/injection, schedule: Q04DX003 (ip), vehicle: Klucel (hydroxypropylcellulose) (HPC)) 154 % of control; (dose: 0.6 mg/kg/injection, schedule: Q04DX003 (ip), vehicle: Klucel (hydroxypropylcellulose) (HPC)) 117 % of control; (dose: 1.0 mg/kg/injection, schedule: Q01DX009 (ip), vehicle: Klucel (hydroxypropylcellulose) (HPC)) 94 % of control; (dose: 1.0 mg/kg/injection, schedule: Q04DX003 (ip), vehicle: Klucel (hydroxypropylcellulose) (HPC)) 204 % of control; (dose: 1.5 mg/kg/injection, schedule: Q01DX009 (ip), vehicle: Klucel (hydroxypropylcellulose) (HPC)) 254 % of control. In addition, the T/C was 152 % of control (dose: 1.6 mg/kg/injection, schedule: Q04DX003 (ip), vehicle: Klucel (hydroxypropylcellulose) (HPC)); 186 % of control (dose: 2.0 mg/kg/injection, schedule: Q04DX003 (ip), vehicle: Klucel (hydroxypropylcellulose) (HPC)); 160 % of control and 175 % of control (dose: 2.5 mg/kg/injection, schedule: Q04DX003 (ip), vehicle: Klucel (hydroxypropylcellulose) (HPC)); 231 % of control (dose: 3.0 mg/kg/injection, schedule: Q01DX009 (ip), vehicle: Klucel (hydroxypropylcellulose) (HPC)); 186 % of control (dose: 3.0 mg/kg/injection, schedule: Q04DX003 (ip), vehicle: Klucel (hydroxypropylcellulose) (HPC)); 187 % of control (dose: 4.0 mg/kg/injection, schedule: Q04DX003 (ip), vehicle: Klucel (hydroxypropylcellulose) (HPC)). For the same compound, the T/C was 272 % of control (dose: 6.0 mg/kg/injection, schedule: Q01DX009 (ip), vehicle: Klucel (hydroxypropylcellulose) (HPC)); 227 % of control and 187 % of control and 213 % of control (dose: 6.0 mg/kg/injection, schedule: Q04DX003 (ip), vehicle: Klucel (hydroxypropylcellulose) (HPC)); 190 % of control (dose: 9.0 mg/kg/injection, schedule: Q04DX003 (ip), vehicle: Klucel (hydroxypropylcellulose) (HPC)); 213 % of control (dose: 12.0 mg/kg/injection, schedule: Q04DX003 (ip), vehicle: Klucel (hydroxypropylcellulose) (HPC)); 300 % of control (dose: 12.5 mg/kg/injection, schedule: Q01DX009 (ip), vehicle: Klucel (hydroxypropylcellulose) (HPC)); 231 % of control and 259 % of control (dose: 13.0 mg/kg/injection, schedule: Q04DX003 (ip), vehicle: Klucel (hydroxypropylcellulose) (HPC)). The T/C runs as follows: (dose: 20.0 mg/kg/injection, schedule: Q04DX003 (ip), vehicle: Klucel (hydroxypropylcellulose) (HPC)) 245 % of control; (dose: 25.0 mg/kg/injection, schedule: Q01DX009 (ip), vehicle: Klucel (hydroxypropylcellulose) (HPC)) 300 % of control; (dose: 25.0 mg/kg/injection, schedule: Q04DX003 (ip), vehicle: Klucel (hydroxypropylcellulose) (HPC)) 272 % of control; (dose: 30.0 mg/kg/injection, schedule: Q04DX003 (ip), vehicle: Klucel (hydroxypropylcellulose) (HPC)) 250 % of control and 272 % of control; (dose: 44.0 mg/kg/injection, schedule: Q04DX003 (ip), vehicle: Klucel (hydroxypropylcellulose) (HPC)) 250 % of control; (dose: 50.0 mg/kg/injection, schedule: Q01DX009 (ip), vehicle: Klucel (hydroxypropylcellulose) (HPC)) 210 % of control. The T/C by setting is: under setting [1], 254 % of control; (dose: 66.0 mg/kg/injection, schedule: Q04DX003 (ip), vehicle: Klucel (hydroxypropylcellulose) (HPC)) 241 % of control and 250 % of control; under setting [2], 233 % of control and 254 % of control and 260 % of control; (dose: 150.0 mg/kg/injection, schedule: Q01DX009 (ip), vehicle: Klucel (hydroxypropylcellulose) (HPC)) 115 % of control; (dose: 150.0 mg/kg/injection, schedule: Q04DX003 (ip), vehicle: Klucel (hydroxypropylcellulose) (HPC)) 175 % of control; (dose: 200.0 mg/kg/injection, schedule: Q04DX003 (ip), vehicle: Klucel (hydroxypropylcellulose) (HPC)) 260 % of control and 272 % of control. Besides, the T/C reads like this: (dose: 400.0 mg/kg/injection, schedule: Q01DX009 (ip), vehicle: Klucel (hydroxypropylcellulose) (HPC)) 115 % of control; (dose: 400.0 mg/kg/injection, schedule: Q04DX003 (ip), vehicle: Klucel (hydroxypropylcellulose) (HPC)) 234 % of control and 177 % of control; (dose: 600.0 mg/kg/injection, schedule: Q04DX003 (ip), vehicle: Klucel (hydroxypropylcellulose) (HPC)) 272 % of control.

With `CCN(C(=S)Nc1cccc(OC)c1)c1ccccc1`, the T/C (dose: 50.0 mg/kg/injection, schedule: Q01DX009 (ip), vehicle: saline with Tween-80) is 101 % of control; the T/C under setting [3] is 99 % of control; the T/C under setting [4] was 101 % of control.

For the compound `Cc1nc2n[nH]c(N)c2nc1C`, the T/C is 100 % of control under setting [5]; 100 % of control under setting [6]; 91 % of control (dose: 400.0 mg/kg/injection, schedule: Q01DX009 (ip), vehicle: saline).

Take `Cc1c(C)c2c(c(C)c1O)CCC(C)(CCCC(C)CCCC(C)CCCC(C)C)O2` (centres undefined): the T/C (dose: 30.0 IU/animal/injection, schedule: Q04DX003 (ip), vehicle: olive oil, sesame oil, peanut oil) is 100 % of control and the T/C (dose: 85.0 IU/animal/injection, schedule: Q04DX003 (ip), vehicle: olive oil, sesame oil, peanut oil) was 100 % of control.

For `O=C(O)c1ccccc1C(=O)Nc1cc(Cl)ccc1Cl`, the T/C under setting [1] was 91 % of control and the T/C under setting [2] was 100 % of control.

For the compound `COc1ccc(OC)c(NC=O)c1`, the T/C reads like this: (dose: 25.0 mg/kg/injection, schedule: Q01DX009 (ip), vehicle: saline with Tween-80) 97 % of control; under setting [3], 97 % of control.

For `c1cc[c]([Pb]([c]2ccccc2)([c]2ccccc2)[n]2cccc2)cc1`, the T/C (dose: 3.12 mg/kg/injection, schedule: Q01DX009 (ip), vehicle: saline) is 90 % of control; the T/C (dose: 6.25 mg/kg/injection, schedule: Q01DX009 (ip), vehicle: saline) is 109 % of control; the T/C (dose: 12.5 mg/kg/injection, schedule: Q01DX009 (ip), vehicle: saline) was 109 % of control; the T/C (dose: 21.25 mg/kg/injection, schedule: Q04DX003 (ip), vehicle: Klucel (hydroxypropylcellulose) (HPC)) is 100 % of control; the T/C (dose: 42.5 mg/kg/injection, schedule: Q04DX003 (ip), vehicle: Klucel (hydroxypropylcellulose) (HPC)) is 113 % of control.

Regarding `COc1cccc(CCCC(=O)CS(C)=O)c1` (centres undefined), the T/C is 98 % of control (dose: 50.0 mg/kg/injection, schedule: Q01DX009 (ip), vehicle: saline); 102 % of control under setting [5]; 109 % of control under setting [6].

On to `COc1cccc(CCNC(=O)CC#N)c1`, for which the T/C was 100 % of control under setting [3]; 110 % of control under setting [7]; 110 % of control under setting [4]; 100 % of control under setting [8]; 100 % of control under setting [9]; 100 % of control under setting [10].

`CC(=O)OCC(=O)[C@@]1(O)CC[C@H]2[C@@H]3C=C(C)C4=CC(=O)CC[C@]4(C)[C@H]3[C@@H](O)C[C@@]21C`: the T/C runs as follows: under setting [3], 108 % of control; under setting [7], 95 % of control; under setting [4], 91 % of control; under setting [8], 95 % of control; under setting [9], 108 % of control; under setting [10], 95 % of control.

Turning to `OCC1CSCN1` (centres undefined), the T/C reads like this: (dose: 50.0 mg/kg/injection, schedule: Q04DX002 (ip), vehicle: saline) 100 % of control; (dose: 100.0 mg/kg/injection, schedule: Q04DX002 (ip), vehicle: saline) 103 % of control; (dose: 200.0 mg/kg/injection, schedule: Q04DX002 (ip), vehicle: saline) 98 % of control.
